# Key:
# hair loss and baldness = test system: hair loss and baldness; parameters: species or system human; details: in vivo
# erectile dysfunction = test system: erectile dysfunction; parameters: species or system human; details: in vivo
# facial wrinkles = details: human, in vivo
# Peyronie's disease = test system: Peyronie's disease; parameters: species or system human; details: in vivo
compound,measurement,setting,value
C[C@H]1C[C@H]2[C@@H]3CCC4=CC(=O)C=C[C@]4(C)[C@@]3(F)[C@@H](O)C[C@]2(C)[C@@]1(O)C(=O)CO [betamethasone],time of treatment after which new hair growth began,hair loss and baldness,30 days
Nc1cc(N2CCCCC2)nc(N)[n+]1[O-] [minoxidil],time of treatment after which new hair growth began,hair loss and baldness,30 days
CC12CCC(CC1)C(C)(C)O2 [eucalyptol],erections,erectile dysfunction,improved erections were obtained
CC1CCC(C(C)C)C(O)C1 (stereo not drawn) [menthol],erections,erectile dysfunction,improved erections were obtained
"CC1=C(/C=C/C(C)=C/C=C/C(C)=C/C(=O)O)C(C)(C)CCC1 [Retin A, tretinoin]",duration of wrinkle reducing effect,facial wrinkles,lasts up to one week
same,period over which wrinkle reducing effect occurs,facial wrinkles,72 h
same,wrinkle treatment outcome,facial wrinkles,used successfully
botulinum toxina [Botox],duration of wrinkle reducing effect,facial wrinkles,lasts up to one week
same,period over which wrinkle reducing effect occurs,facial wrinkles,72 h
same,wrinkle treatment outcome,facial wrinkles,used successfully
CC(C)NCC(O)COc1cccc2ccccc12 (stereo not drawn) [propranolol],penile curvature outcome,Peyronie's disease,gradually attained a straightened penis
same,time to straightened penis,Peyronie's disease,≤ 90 days

# From patent US20090069359A1 (priority 2006, published 2009)
